# Experimental data from ChEMBL document CHEMBL4602703, “Lead Optimization of a Pyrrole-Based Dihydroorotate Dehydrogenase Inhibitor Series for the Treatment of Malaria” (J Med Chem, 2020).
# Experiments:
# Plasmodium falciparum [1] = tested on: Plasmodium falciparum
# [2] = fAUC in Plasmodium falciparum 3D70087/N9 infected po dosed NOD-SCID IL2Rgamma null mouse blood administered once daily for 4 days; assay type: ADME, organism-based; details: in vivo, 96 h
# Plasmodium falciparum [3] = assay: Antimalarial activity against Plasmodium falciparum 3D70087/N9 infected in NOD-SCID IL2Rgamma null mouse assessed as blood AUC level require to show 90% reduction in parasitemia administered administered once daily for 4 days; assay type: functional, organism-based
# Plasmodium falciparum [4] = assay: animal or person; details: for EC50: 3D70087/N9, 96 h
# Albumin [5] = target: T1, Albumin (Homo sapiens, UniProt P02768); assay: Binding affinity to albumin (unknown origin) by chromatographic method; assay type: ADME; details: for fraction unbound: albumin, read-out: PB (converted)
# T1 sequence (P02768 whole entry): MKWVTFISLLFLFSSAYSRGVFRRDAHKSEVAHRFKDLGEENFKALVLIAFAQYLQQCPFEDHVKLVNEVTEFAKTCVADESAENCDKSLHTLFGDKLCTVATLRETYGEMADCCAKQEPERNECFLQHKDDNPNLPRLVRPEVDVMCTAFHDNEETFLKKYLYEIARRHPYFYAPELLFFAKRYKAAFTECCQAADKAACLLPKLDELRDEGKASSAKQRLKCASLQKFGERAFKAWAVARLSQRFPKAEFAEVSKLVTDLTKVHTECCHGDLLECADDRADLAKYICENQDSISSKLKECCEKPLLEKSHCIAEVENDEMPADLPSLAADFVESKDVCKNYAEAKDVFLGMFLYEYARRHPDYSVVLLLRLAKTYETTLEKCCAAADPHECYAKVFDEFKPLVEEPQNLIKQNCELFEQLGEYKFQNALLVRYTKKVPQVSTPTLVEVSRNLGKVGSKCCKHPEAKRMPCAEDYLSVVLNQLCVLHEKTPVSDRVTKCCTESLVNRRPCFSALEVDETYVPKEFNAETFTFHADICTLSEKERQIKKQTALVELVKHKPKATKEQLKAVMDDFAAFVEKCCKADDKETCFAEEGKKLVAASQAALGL
# [6] = target: T2, Dihydroorotate dehydrogenase (quinone), mitochondrial (Homo sapiens, UniProt Q02127)
# T2 sequence (Q02127 whole entry): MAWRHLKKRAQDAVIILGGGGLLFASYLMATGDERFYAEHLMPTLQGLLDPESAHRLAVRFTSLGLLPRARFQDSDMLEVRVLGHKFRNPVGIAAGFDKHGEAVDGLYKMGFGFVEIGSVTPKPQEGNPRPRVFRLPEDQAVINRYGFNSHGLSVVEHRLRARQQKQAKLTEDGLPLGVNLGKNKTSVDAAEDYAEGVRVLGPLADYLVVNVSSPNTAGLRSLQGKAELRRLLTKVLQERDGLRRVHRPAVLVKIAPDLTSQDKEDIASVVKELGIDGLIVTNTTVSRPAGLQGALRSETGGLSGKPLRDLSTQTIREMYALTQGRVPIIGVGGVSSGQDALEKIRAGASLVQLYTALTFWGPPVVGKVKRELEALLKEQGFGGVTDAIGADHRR
# [7] = Intrinsic clearance in mouse liver microsomes assessed as per mg protein; assay type: ADME, Microsome
# [8] = Intrinsic clearance in human liver microsomes assessed as per mg protein; assay type: ADME, Microsome
# Plasmodium falciparum [9] = assay: microbe, parasite or virus in culture; details: 3D7, 72 h
# [10] = Inhibition of N-terminal His6-tagged Plasmodium falciparum DHODH expressed in Escherichia coli BL21(DE3) cells using L-DHO as substrate by DCIP dye based assay
# physchem [11] = details: octanol/water, pH 7.4
# [12] = Inhibition of C-terminal His6-tagged Plasmodium falciparum DHODH expressed in Escherichia coli BL21(DE3) cells using L-DHO as substrate after 20 mins by 2,6-dichloroindophenol reduction based assay
# [13] = target: T2, Dihydroorotate dehydrogenase (quinone), mitochondrial; assay: Inhibition of C-terminal His6-tagged human DHODH (30 to 396 residues) expressed in Escherichia coli BL21(DE3) cells using L-DHO as substrate after 20 mins by 2,6-dichloroindophenol reduction based assay
# physchem [14] = details: PBS, pH 7.4
# [15] = AUC (0 to infinity) in Swiss mouse at 10 mg/kg, po by LC-MS analysis; assay type: ADME, organism-based; parameters: dose 10 mg/kg, route oral, time infinity; details: in vivo
# [16] = Oral bioavailability in Swiss mouse at 10 mg/kg by LC-MS analysis; assay type: ADME, organism-based; details: in vivo
# Plasmodium falciparum [17] = assay type: functional, organism-based; details: R2B, 72 h
# Plasmodium falciparum [18] = assay type: functional, organism-based; details: R10C1B, 72 h
# [19] = Intrinsic clearance in liver microsomes assessed as per mg protein; details: read-out: CLH
# physchem [20] = details: fasted state simulated gastric fluid, pH 1.6
# physchem [21] = details: fasted state simulated intestinal fluid, pH 6.5
# [22] = Clearance in Sprague-Dawley rat plasma at […], iv by LC-MS analysis; assay type: ADME, organism-based; details: in vivo
# [23] = target: T3, Voltage-gated inwardly rectifying potassium channel KCNH2 (Homo sapiens, UniProt Q12809); assay: Inhibition of human ERG by patch clamp assay
# T3 sequence (Q12809 whole entry): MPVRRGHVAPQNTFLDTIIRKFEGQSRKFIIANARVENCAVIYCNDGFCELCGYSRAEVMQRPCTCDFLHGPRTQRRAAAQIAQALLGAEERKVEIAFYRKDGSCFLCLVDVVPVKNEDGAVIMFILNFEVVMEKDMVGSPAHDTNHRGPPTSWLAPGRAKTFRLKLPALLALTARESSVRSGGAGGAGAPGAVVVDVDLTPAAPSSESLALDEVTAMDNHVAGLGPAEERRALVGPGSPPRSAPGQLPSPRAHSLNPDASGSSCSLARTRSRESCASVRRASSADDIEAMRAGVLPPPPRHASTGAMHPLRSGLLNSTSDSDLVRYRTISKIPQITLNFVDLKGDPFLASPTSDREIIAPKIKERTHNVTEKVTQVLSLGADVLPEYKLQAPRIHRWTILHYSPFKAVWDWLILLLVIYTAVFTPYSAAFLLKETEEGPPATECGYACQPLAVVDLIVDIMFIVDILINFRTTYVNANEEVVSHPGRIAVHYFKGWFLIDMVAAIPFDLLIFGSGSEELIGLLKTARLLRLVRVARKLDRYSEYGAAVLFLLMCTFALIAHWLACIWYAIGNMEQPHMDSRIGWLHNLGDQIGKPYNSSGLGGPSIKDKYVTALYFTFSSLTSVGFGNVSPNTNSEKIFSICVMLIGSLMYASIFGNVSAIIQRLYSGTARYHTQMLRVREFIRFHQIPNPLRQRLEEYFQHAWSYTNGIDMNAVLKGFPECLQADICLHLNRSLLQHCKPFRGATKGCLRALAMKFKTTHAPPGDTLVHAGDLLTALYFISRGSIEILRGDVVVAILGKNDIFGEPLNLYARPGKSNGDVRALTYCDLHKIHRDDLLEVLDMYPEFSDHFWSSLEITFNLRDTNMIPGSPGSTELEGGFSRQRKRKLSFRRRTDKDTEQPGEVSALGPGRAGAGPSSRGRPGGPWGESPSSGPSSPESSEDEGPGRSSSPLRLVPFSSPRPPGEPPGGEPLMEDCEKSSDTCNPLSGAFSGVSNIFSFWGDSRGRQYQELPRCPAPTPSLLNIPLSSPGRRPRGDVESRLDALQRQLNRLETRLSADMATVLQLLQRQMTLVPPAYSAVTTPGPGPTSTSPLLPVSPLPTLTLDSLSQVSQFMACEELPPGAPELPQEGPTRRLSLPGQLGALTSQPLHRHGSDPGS
# in vivo [24] = details: Swiss, mouse, po, 10 mg/kg
# [25] = Inhibition of yeast DHODH transformed in Plasmodium falciparum D10 in presence of 10 uM proguanil; parameters: species or system Saccharomyces cerevisiae
# Plasmodium falciparum [26] = assay: Antimalarial activity against Plasmodium falciparum R1BC1A harboring DHODH L531F mutant measured after 72 hrs by SYBR Green dye based fluorescence assay; assay type: functional, organism-based
# [27] = Cmax in Swiss mouse at 10 mg/kg, po by LC-MS analysis; assay type: ADME, organism-based; parameters: dose 10 mg/kg, route oral; details: in vivo
# [28] = Protein binding in DMEM medium containing 10% fetal calf serum by LC-MS analysis based ultracentrifugation assay; assay type: ADME, cell-free, Bos taurus; details: cattle, serum
# Plasmodium falciparum [29] = assay: microbe, parasite or virus in culture; details: 1D3, 72 h
# Plasmodium falciparum [30] = assay: Antimalarial activity against Plasmodium falciparum 3D70087/N9 infected in po dosed NOD-SCID IL2Rgamma null mouse administered BID for 4 days by flow cytometric analysis; assay type: functional; details: 3D70087/N9, po, 96 h
# [31] = target: T3, Voltage-gated inwardly rectifying potassium channel KCNH2; assay: Inhibition of human ERG by IonWorks patch clamp electrophysiology assay
# [32] = Apparent half life in Swiss mouse at 10 mg/kg, po by LC-MS analysis; assay type: ADME, organism-based; details: in vivo, read-out: t1/2(app) (converted)
# [33] = Cmax in Sprague-Dawley rat at 18.8 mg/kg, po by LC-MS analysis; assay type: ADME, organism-based; parameters: dose 18.8 mg/kg, route oral; details: in vivo
# HepG2 = assay: Cytotoxicity against human HepG2 cells assessed as reduction in cell viability; assay type: cell-based
# [34] = simulated gi fluid, pH 5.8
# [35] = Protein binding in human liver microsomes by LC-MS analysis based ultracentrifugation assay; assay type: ADME, Microsome; details: read-out: PB (converted)
# Albumin [36] = target: T1, Albumin; assay: Binding affinity to albumin (unknown origin) in ALBUMAX medium; assay type: ADME; details: read-out: PB (converted)
# [37] = Protein binding in rat plasma by LC-MS analysis based ultracentrifugation assay; assay type: ADME, cell-free; details: read-out: PPB (converted)
# Plasmodium falciparum [38] = assay: Antimalarial activity against Plasmodium falciparum R1AC1B harboring DHODH C276F mutant measured after 72 hrs by SYBR Green dye based fluorescence assay; assay type: functional, organism-based
# in vivo [39] = details: Sprague-Dawley, rat, po
# L1210 = assay: Cytotoxicity against mouse L1210 cells assessed as reduction in cell viability; assay type: cell-based
# [40] = target: Dihydroorotate dehydrogenase (quinone), mitochondrial (Rattus norvegicus, UniProt Q63707)
# Sequence of Dihydroorotate dehydrogenase (quinone), mitochondrial (Rattus norvegicus, UniProt Q63707) (Q63707 whole entry): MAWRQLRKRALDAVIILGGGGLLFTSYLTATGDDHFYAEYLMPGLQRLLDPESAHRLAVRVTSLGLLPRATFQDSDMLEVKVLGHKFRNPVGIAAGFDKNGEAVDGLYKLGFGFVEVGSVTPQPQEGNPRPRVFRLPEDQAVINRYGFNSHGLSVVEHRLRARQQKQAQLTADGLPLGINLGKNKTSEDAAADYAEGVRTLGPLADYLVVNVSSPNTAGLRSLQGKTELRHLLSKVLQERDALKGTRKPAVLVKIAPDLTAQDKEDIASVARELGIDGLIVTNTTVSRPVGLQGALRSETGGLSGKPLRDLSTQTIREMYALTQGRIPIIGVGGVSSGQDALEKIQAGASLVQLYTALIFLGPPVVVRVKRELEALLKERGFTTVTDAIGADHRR
# [41] = target: Dihydroorotate dehydrogenase (quinone), mitochondrial (Mus musculus, UniProt O35435)
# Sequence of Dihydroorotate dehydrogenase (quinone), mitochondrial (Mus musculus, UniProt O35435) (O35435 whole entry): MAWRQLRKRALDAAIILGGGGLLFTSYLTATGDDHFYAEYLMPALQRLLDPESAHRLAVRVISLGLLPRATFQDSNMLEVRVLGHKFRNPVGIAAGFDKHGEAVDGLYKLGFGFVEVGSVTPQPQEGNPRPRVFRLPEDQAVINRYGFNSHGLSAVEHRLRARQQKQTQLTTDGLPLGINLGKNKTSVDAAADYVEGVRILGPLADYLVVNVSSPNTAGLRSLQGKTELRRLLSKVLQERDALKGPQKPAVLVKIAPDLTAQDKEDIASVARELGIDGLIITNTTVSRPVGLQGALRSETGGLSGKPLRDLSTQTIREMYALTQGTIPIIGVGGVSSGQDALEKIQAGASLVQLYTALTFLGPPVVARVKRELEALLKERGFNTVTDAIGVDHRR
compound,measurement,setting,value
Cc1cc(Nc2ccc(C(F)(F)F)nc2)n2nc(C(C)(F)F)nc2n1,fEC50,Plasmodium falciparum [1],0.007 µM
same,fAUC,[2],250 ng·h/mL
same,AUCED90,Plasmodium falciparum [3],12.9 µg·h/mL
same,EC50,Plasmodium falciparum [4],0.014 µM
same,ED90,"Plasmodium falciparum [4]; 3D70087/N9, in Mus musculus, po, 96 h",2.6 mg/kg/day
Cc1c(Cc2ccc(C(F)(F)F)nc2)c[nH]c1C(=O)NCC(F)(F)F,fraction unbound,Albumin [5],0.181
same,IC50,[6],> 100 µM
same,microsomal CLint,[7]; microsomes,57 µL/min/mg
same,microsomal CLint,[8],15 µL/min/mg
same,EC50,Plasmodium falciparum [9],0.044 to 0.059 µM
same,IC50,[10],0.21 µM
same,logD,physchem [11],3.3
Cc1nc2cc(OC(F)(F)F)ccc2n1-c1ccc(C(=O)NC2CC2)s1,EC50,Plasmodium falciparum [9],0.007 µM
same,IC50,[12],0.022 µM
same,IC50,[13],> 30 µM
Cc1cc(Nc2ccc(S(F)(F)(F)(F)F)cc2)n2nc(C(C)(F)F)nc2n1 [DSM-265],solubility,physchem [14],2 µg/mL
same,PB,Albumin [5]; isolated protein,97.4%
same,AUC(0-inf),[15],29.7 µM·h
same,bioavailability,[16],61%
same,EC50,Plasmodium falciparum [17],0.074 to 0.15 µM
same,EC50,Plasmodium falciparum [18],0.12 to 0.15 µM
same,fEC50,Plasmodium falciparum [1],0.001 µM
same,microsomal CLint,[19],< 7 µL/min/mg
same,fAUC,[2],15 to 23 ng·h/mL
same,solubility,physchem [20],6.8 µg/mL
same,solubility,physchem [21],5.1 µg/mL
same,clearance,[22],6.5 mL/min/kg
same,EC50,[23],1.6 µM
same,Tmax,in vivo [24],1 to 2 h
same,EC50,[25],> 20 µM
same,EC50,Plasmodium falciparum [26],0.08 to 0.11 µM
same,Cmax,[27],3.94 µM
same,PB,[28],78.5%
same,microsomal CLint,"[7]; liver microsomes, read-out: CLH",7 to 8 µL/min/mg
same,EC50,Plasmodium falciparum [29],0.023 µM
same,microsomal CLint,[8],< 7 µL/min/mg
same,EC50,Plasmodium falciparum [9],0.006 µM
same,ED90,Plasmodium falciparum [30],3 mg/kg/day
same,EC50,[31],7 µM
same,half-life,[32],2.4 h
same,Cmax,[33],3.95 µM
same,IC50,[10],0.03 µM
same,EC50,Plasmodium falciparum [4],0.006 µM
same,CC50,HepG2,> 50 µM
same,solubility,[34],27.6 µg/mL
same,fraction unbound,[35],0.283
same,fraction unbound,Albumin [36],0.169
same,fraction unbound,[37],0.03
same,EC50,Plasmodium falciparum [38],0.17 µM
same,Tmax,in vivo [39],3.3 h
same,CC50,L1210,> 50 µM
Cc1c(C(O)c2ccc(C(F)(F)F)nc2)c[nH]c1C(=O)NC1CC1 (racemic),fraction unbound,Albumin [5],0.105
same,IC50,[6],> 100 µM
same,microsomal CLint,[7]; microsomes,40 µL/min/mg
same,microsomal CLint,[8],20 µL/min/mg
same,EC50,Plasmodium falciparum [9],0.044 µM
same,IC50,[10],0.074 µM
same,logD,physchem [11],3.2
Cc1[nH]c(C(=O)NC2CC2)cc1Cc1ccc(C(F)(F)F)nc1,fraction unbound,Albumin [5],0.274
same,IC50,[6],> 100 µM
same,microsomal CLint,[7]; microsomes,41 µL/min/mg
same,microsomal CLint,[8],36 µL/min/mg
same,EC50,Plasmodium falciparum [9],3.6 µM
same,IC50,[10],10 µM
same,logD,physchem [11],2.8
CCOC(=O)c1[nH]c(C)c(Cc2ccc(OC)cc2)c1C,IC50,[6],> 100 µM
same,IC50,[40],> 100 µM
same,IC50,[41],> 100 µM
same,EC50,Plasmodium falciparum [9],0.59 µM
same,IC50,[10],0.52 µM
Cc1[nH]c(C(=O)NC2CC2)c(C)c1Cc1ccc(C(F)(F)F)nc1,fraction unbound,Albumin [5],0.172
same,IC50,[6],> 100 µM
same,microsomal CLint,[7]; microsomes,33 µL/min/mg
same,microsomal CLint,[8],15 µL/min/mg
same,EC50,Plasmodium falciparum [9],0.036 µM
same,logD,physchem [11],3
Cc1c(Cc2ccc(C(F)(F)F)nc2)c[nH]c1C(=O)N1CC(F)(F)C1,fraction unbound,Albumin [5],0.251
same,IC50,[6],> 100 µM
same,IC50,[40],> 100 µM
same,IC50,[41],> 100 µM
same,microsomal CLint,[7]; microsomes,94 µL/min/mg
same,microsomal CLint,[8],21 µL/min/mg
same,EC50,Plasmodium falciparum [9],0.029 µM
same,IC50,[10],0.033 µM
same,logD,physchem [11],3.3
Cc1c(Cc2ccc(C(F)(F)F)cc2)c[nH]c1C(=O)NC1CC1,fraction unbound,Albumin [5],0.029
same,IC50,[6],> 100 µM
same,microsomal CLint,[7]; microsomes,173 µL/min/mg
same,microsomal CLint,[8],19 µL/min/mg
same,EC50,Plasmodium falciparum [9],0.018 µM
same,IC50,[10],0.048 µM
same,logD,physchem [11],3.7
